From PubChem BioAssay AID248 (DTP/NCI, 2004)
Values joined by “and” are separate entries in the source; they are usually repeats but may differ in a detail not shown here. Equal values may be shown once. Inconclusive results and toxic doses are left out.

Tested on: L1210 leukemia ip in BDF1 mice, survival T/C
Test: NCI In Vivo Anticancer Drug Screen. Data for tumor model L1210 Leukemia (intraperitoneal) in B6D2F1 (BDF1) mice
Settings: endpoint: mean survival time, higher = longer survival
Procedure, shortened: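 Tumor cells were implanted, animals were treated, and survival was followed. The result divides the treated measurement by the vehicle-control measurement.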

[1] = dose: 100.0 mg/kg/injection, schedule: Q01DX009 (ip), vehicle: Klucel (hydroxypropylcellulose) (HPC)
[2] = dose: 200.0 mg/kg/injection, schedule: Q01DX009 (ip), vehicle: Klucel (hydroxypropylcellulose) (HPC)
[3] = dose: 400.0 mg/kg/injection, schedule: Q01DX009 (ip), vehicle: Klucel (hydroxypropylcellulose) (HPC)
[4] = dose: 100.0 mg/kg/injection, schedule: Q04DX003 (ip), vehicle: Klucel (hydroxypropylcellulose) (HPC)
[5] = dose: 200.0 mg/kg/injection, schedule: Q04DX003 (ip), vehicle: Klucel (hydroxypropylcellulose) (HPC)
[6] = dose: 400.0 mg/kg/injection, schedule: Q04DX003 (ip), vehicle: Klucel (hydroxypropylcellulose) (HPC)
[7] = dose: 12.5 mg/kg/injection, schedule: Q01DX009 (ip), vehicle: Klucel (hydroxypropylcellulose) (HPC)
[8] = dose: 25.0 mg/kg/injection, schedule: Q01DX009 (ip), vehicle: Klucel (hydroxypropylcellulose) (HPC)
[9] = dose: 50.0 mg/kg/injection, schedule: Q01DX009 (ip), vehicle: Klucel (hydroxypropylcellulose) (HPC)

In the case of `O=C(Nc1ccc(Cl)cc1[N+](=O)[O-])N1CCN(c2ccccc2)CC1`, the T/C (dose: 44.0 mg/kg/injection, schedule: Q01DX009 (ip), vehicle: Klucel (hydroxypropylcellulose) (HPC)) is reported as 101 % of control, the T/C (dose: 66.0 mg/kg/injection, schedule: Q01DX009 (ip), vehicle: Klucel (hydroxypropylcellulose) (HPC)) is reported as 97 % of control and the T/C [1] is reported as 101 % of control. The T/C (dose: 150.0 mg/kg/injection, schedule: Q01DX009 (ip), vehicle: Klucel (hydroxypropylcellulose) (HPC)) was 95 % of control, the T/C [2] was 96 % of control and the T/C [3] was 101 % of control.
For `[C](#Cc1ccccc1)[Hg][C]#Cc1ccccc1`, the T/C [4] was 103 % of control, the T/C [5] was 94 % of control and the T/C [6] was 96 % of control.
`NC(=O)Nc1cccc2ccccc12` was tested, and the T/C [1] was 97 % of control, the T/C [4] was 92 % of control and the T/C [2] was 97 % of control. The T/C [5] was 94 % of control, the T/C [3] was 103 % of control and the T/C [6] was 100 % of control.
With `Cc1ccccc1NC(=O)CI` the T/C [7] was 97 % of control, the T/C [8] was 103 % of control and the T/C [9] was 101 % of control.
In the case of `O=C(NCCCc1ccc(S(=O)(=O)F)cc1)Oc1ccc([N+](=O)[O-])cc1`, the T/C (dose: 25.0 mg/kg/injection, schedule: Q01DX009 (ip), vehicle: saline with Tween-80) is reported as 102 % of control, the T/C (dose: 50.0 mg/kg/injection, schedule: Q01DX009 (ip), vehicle: saline with Tween-80) is reported as 100 % of control and the T/C (dose: 100.0 mg/kg/injection, schedule: Q01DX009 (ip), vehicle: saline with Tween-80) is reported as 93 % of control and 86 % of control.
With `O=NN(CCCl)C(=O)Nc1cc2c3ccccc3ccc2c2ccccc12` the T/C (dose: 177.0 mg/kg/injection, schedule: Q01DX009 (ip), vehicle: carboxymethylcellulose (CMC)) was 123 % of control.
`CS(=O)(=O)OCOS(C)(=O)=O` was tested, and the T/C [7] was 104 % of control, the T/C (dose: 12.5 mg/kg/injection, schedule: Q01DX009 (ip), vehicle: saline) was 96 % of control and the T/C [8] was 101 % of control. The T/C (dose: 25.0 mg/kg/injection, schedule: Q01DX009 (ip), vehicle: saline) was 100 % of control, the T/C [9] was 120 % of control and the T/C (dose: 50.0 mg/kg/injection, schedule: Q04DX002 (ip), vehicle: saline) was 119 % of control.
With `C[n+]1ccc2ccccc2c1` the T/C (dose: 50.0 mg/kg/injection, schedule: Q01DX009 (ip), vehicle: saline) was 105 % of control, the T/C (dose: 50.0 mg/kg/injection, schedule: Q04DX003 (ip), vehicle: saline) was 105 % of control and the T/C (dose: 100.0 mg/kg/injection, schedule: Q01DX009 (ip), vehicle: saline) was 100 % of control. For the same compound, the T/C (dose: 100.0 mg/kg/injection, schedule: Q04DX003 (ip), vehicle: saline) was 101 % of control, the T/C (dose: 200.0 mg/kg/injection, schedule: Q01DX009 (ip), vehicle: saline) was 107 % of control and the T/C (dose: 200.0 mg/kg/injection, schedule: Q04DX003 (ip), vehicle: saline) was 106 % of control.
For `CCOC(=O)C12CCCCC1=CC1(CC2)SCCS1` (stereo not given), the T/C (dose: 100.0 mg/kg/injection, schedule: Q01DX009 (ip), vehicle: acetone) was 88 % of control, the T/C (dose: 200.0 mg/kg/injection, schedule: Q01DX009 (ip), vehicle: acetone) was 91 % of control and the T/C (dose: 400.0 mg/kg/injection, schedule: Q01DX009 (ip), vehicle: acetone) was 246 % of control.
`CC(=O)OC(C#N)c1ccco1` (stereo not given) was tested, and the T/C (dose: 3.0 mg/kg/injection, schedule: Q01DX009 (ip), vehicle: saline with Tween-80) was 91 % of control, the T/C (dose: 3.0 mg/kg/injection, schedule: Q04DX003 (ip), vehicle: saline with Tween-80) was 105 % of control and the T/C (dose: 6.0 mg/kg/injection, schedule: Q01DX009 (ip), vehicle: saline with Tween-80) was 100 % of control. The T/C (dose: 6.0 mg/kg/injection, schedule: Q04DX003 (ip), vehicle: saline with Tween-80) was 101 % of control, the T/C (dose: 12.0 mg/kg/injection, schedule: Q01DX009 (ip), vehicle: saline with Tween-80) was 91 % of control and the T/C (dose: 12.0 mg/kg/injection, schedule: Q04DX003 (ip), vehicle: saline with Tween-80) was 101 % of control. The T/C (dose: 12.5 mg/kg/injection, schedule: Q04DX003 (ip), vehicle: saline with Tween-80) was 89 % of control.
With `c1ccc(-c2ccc([Si](c3ccc(-c4ccccc4)cc3)(c3ccc(-c4ccccc4)cc3)c3ccc(-c4ccccc4)cc3)cc2)cc1` the T/C (dose: 12.5 mg/kg/injection, schedule: Q01DX009 (ip), vehicle: gum acacia) was 95 % of control, the T/C (dose: 12.5 mg/kg/injection, schedule: Q04DX003 (ip), vehicle: gum acacia) was 106 % of control and the T/C (dose: 25.0 mg/kg/injection, schedule: Q01DX009 (ip), vehicle: gum acacia) was 100 % of control. For the same compound, the T/C (dose: 25.0 mg/kg/injection, schedule: Q04DX003 (ip), vehicle: gum acacia) was 95 % of control, the T/C (dose: 50.0 mg/kg/injection, schedule: Q01DX009 (ip), vehicle: gum acacia) was 86 % of control and the T/C (dose: 50.0 mg/kg/injection, schedule: Q04DX003 (ip), vehicle: gum acacia) was 92 % of control.
